A short description of data set [1]: Log D by octanol-PBS partition assay. Format: physicochemical. To be noted: pH 7.4, fluorescence readout. On the procedure: In order to confirm that the compounds can also bind to native Aβ species, brain sections collected from 9-month-old 5xFAD transgenic mice have been employed in the fluorescence imaging studies. […] The brain sections were first incubated with our compounds, followed by Congo Red (CR), which is a well-established fluorescent probe that can bind to Aβ plaques.[34] The treated brain sections were then imaged using fluorescence microscope. […] Immunostaining with the CF594-conjugated HJ 3.4 antibody (CF594-HJ3.4) was also performed to confirm that these six compounds can bind to Aβ species specifically in the brain sections (Fig. 5). Moreover, the log D values of the compounds were also measured by octanol-PBS partition assays.[35] […]
The Log D value was measured following a published procedure using slight modifications.4 In general, compounds in 0.5 mL octanol was subjected to partition with 0.5 mL octanol-saturated
PBS. The whole mixture was stirred vigorously for 5 min, and centrifuged at 2,000 rpm for 5 min.
The top octanol layer was separated for later fluorescence measurement. The remaining PBS layer was partitioned with 0.5 mL PBS-saturated octanol, and the second top octanol layer was then separated after vigorous stirring and centrifuging at 2,000 rpm for another 5 min. The two octanol layers’ fluorescence spectra were recorded. The log D value was calculated by the fluorescence intensity ratio at the compounds’ emission wavelength for the above two octanol extractions. […]

Data set [2] is described as follows: Alamar Blue cytotoxicity assay in N2a cells. Format: cell-based, mouse. As to conditions: mouse, N2a (Neuro2A) neuroblastoma cells, up to 10 μM, 40 h, read-out: cell viability. On the procedure: After confirming these amphiphilic compounds can bind to Aβ species both in vitro and ex vivo, we next investigated whether these compounds could attenuate the toxicity of the Cu–Aβ species, as the Cu^2+ ions were reported to promote the formation of neurotoxic soluble Aβ42 oligomers.[45,46] Firstly, the Alamar Blue cell viability assay was used to measure the cytotoxicity of the compounds at different concentrations ranging from 20 μM to 2 μM in mouse neuroblastoma N2a cells (Fig. 8). […] Considering its high binding affinity to both Aβ fibrils and oligomers, we also further tested its ability to alleviate Cu^2+–Aβ42-induced toxicity. […] The underlying mechanism is unclear, but we propose that these compounds might perform similarly to the toxic oligomers that bind to some cell membrane receptors or insert into the membrane lipids to form porous channels.
Alamar Blue assay was chosen for the cytotoxicity studies.3 Mouse neuroblastoma Neuro2A (N2A) cells were grown with DMEM/10% FBS in a petri dish at 37 °C in a humidified atmosphere with 5% CO2. Then N2A cells were seeded in a 96-well plate (1.0 × 10^4/well). After 24 h incubation, cell media was changed to DMEM/N-2, and N2A cells were incubated for another 1 h. Then the cells were treated with different concentrations of compounds for 40 h, Alamar Blue solution (10 μL) was added, and the cells were incubated for another 90 min at 37 °C. The fluorescence intensity of each well was measured at 590 nm (excitation wavelength = 560 nm).
For the Cu2+-Aβ-induced toxicity studies, cells were treated monomeric Aβ42, Cu2+, monomeric Aβ42 + Cu2+, and monomeric Aβ42 + Cu2+ + compounds, monomeric Aβ42 + Cu2+ + copper chelators (Me2HTACN or Me3TACN), respectively. After 40 h incubation, Alamar Blue solution (10 μL) was added, and the cells were incubated for another 90 min at 37 °C. The fluorescence intensity of each well was measured at 590 nm (excitation wavelength = 560 nm). […]
A general note: Resazurin is reduced to fluorescent resorufin, in cell work by metabolically active cells.

Another data set addresses T1, Aβ42 oligomers (Homo sapiens, UniProt P05067).
T1 construct: 1 mg of commercial Aβ42 monomer powder (from GL biochem) was dissolved in 1; purchased GL biochem
Kind of data set: Fluorescence saturation binding assay with Aβ42 oligomers. To be noted: for Kd / binding ratio, Oligomers: Aβ42 oligomers; for Kd: 10 mM PBS pH 7.4, one site-specific binding model; for binding ratio, Oligomers: from cross point between plateau and initial slope; for binding preference oligomers vs fibrils (from Kd values): lower Kd for Aβ oligomers than Aβ fibrils. On the procedure:
(§1) Fig. 3 Binding constant measurements of ZY-5-OMe (left), ZY-5-MT (middle), ZY-5-DT (right) with Aβ42 fibrils (top), and oligomers (bottom). The measurements were performed in 10 mM phosphate buffered saline (PBS), pH 7.4. The Kd curves were fitted in GraphPad Prism with one site-specific binding model. Equation: Y = Bmax × X/(Kd + X). [Aβ42 fibrils] = [Aβ42 oligomers] = 5 μM.
(§2) Preparation of the Aβ42 Fibrils and Aβ42 Oligomers
(§3) Aβ42 fibrils: 1 mg of commercial Aβ42 monomer powder (from GL biochem) was dissolved in 1
(§4) mL 1,1,1,3,3,3-hexafluoro-2-propanol (HFIP) at room temperature and incubated for 1h. The
(§5) resulting solution was divided equally into two Eppendorf tubes. The solution in each Eppendorf
(§6) tube containing 0.5 mg Aβ42 monomer was then evaporated overnight and dried by vacuum
(§7) centrifuge to generate monomeric films. 100 μM Aβ42 fibrils solution was prepared by dissolving
(§8) the 0.5 mg monomeric films in 1.1 mL PBS buffer (with final DMSO concentration less than 1%)
(§9) and stiring at 37 °C for 3 days.
(§10) Aβ42 oligomers: The 0.5 mg monomeric films were dissolved in 1.1 mL PBS buffer (with final
(§11) DMSO concentration less than 1%) and incubated at 4 °C overnight. The resulting solution was
(§12) then centrifuged at 3000 rpm for 15 mins to remove the insoluble aggregates. The clear supernatant
(§13) was then used for the following experiments. […]
(§14) In Vitro Saturation Binding Studies with Aβ42 Fibrils and Aβ42 Oligomers
(§15) To a solution of increasing concentrations of compounds, a fixed concentration of the generated
(§16) aggregated Aβ42 fibrils or Aβ42 oligomers solutions (5 to 15 μM) was added to yield a total volume
(§17) of 100 μL. Nonspecific binding was determined without compounds. The mixture was incubated
(§18) for 15 min at room temperature. All fluorescence data were obtained on a SpectraMax M2e plate
(§19) reader (Molecular Devices).

The next data set addresses T2, Aβ42 fibrils (Homo sapiens, UniProt P05067).
T2 construct: 1 mg of commercial Aβ42 monomer powder (from GL biochem) was dissolved in 1; purchased GL biochem
Description: Fluorescence saturation binding assay with Aβ42 fibrils. To be noted: Aβ42 fibrils; for Kd: 10 mM PBS pH 7.4, one site-specific binding model, read-out: Kd, Fibrils; for binding ratio, Fibrils: from cross point between plateau and initial slope. On the procedure:
as §1, §2, §3, §4, §5, §6, §7, §8, §9, §10, §11, §12, §13, §14, §15, §16, §17, §18, §19

Some results are limits rather than exact numbers.

T1 sequence (P05067 672-713 limits assumed): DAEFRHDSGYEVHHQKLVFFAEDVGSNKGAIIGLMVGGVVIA
T2 sequence (P05067 672-713 limits assumed): as above

On to `COc1cc(/C=C/c2ccc(-c3ccc(N(C)C)cc3)s2)cc(CN2CCN(C)CCN(C)CC2)c1O` [ZY-5-OMe], for which the logD in data set [1] came out at 1.18 ± 0.046. Also, the viability at 40 h in data set [2] is above 80%. Besides, at Aβ42 oligomers, the Kd came to 1040 nM and the “binding ratio, Oligomers” value came out at 4.0. In addition, at Aβ42 fibrils, the Kd amounted to 680 nM and the “binding ratio, Fibrils” value worked out at 5.6.
Turning to `CN1CCN(C)CCN(Cc2cc(-c3ccc(/C=C/c4ccc(N(C)C)cc4)s3)ccc2O)CC1` [ZY-12-MT], the logD in data set [1] came out at 0.83 ± 0.035. The viability at 40 h in data set [2] was above 80%. Moreover, on Aβ42 oligomers, the equilibrium dissociation constant (Kd) stood at 6270 nM and the “binding ratio, Oligomers” value turned out to be 1.0. Besides, at Aβ42 fibrils, the Kd came to 4190 nM and the “binding ratio, Fibrils” value worked out at 1.3.
Regarding `CN1CCN(C)CCN(Cc2cc(/C=C/c3ccc(-c4ccc(C=O)cc4)s3)ccc2O)CC1` [ZY-15-MT], the pH-dependent lipophilicity (logD) in data set [1] was determined as 1.11 ± 0.021. Also, the viability at 40 h in data set [2] was above 80%. Moreover, at Aβ42 oligomers, the Kd turned out to be 2030 nM and the “binding ratio, Oligomers” value is on record as 2.5. For the same molecule, on Aβ42 fibrils, the Kd amounted to 530 nM and the “binding ratio, Fibrils” value amounted to 10.0.
In the case of `COc1cc(/C=C/c2ccc(-c3ccc(C=O)cc3)s2)cc(CN2CCN(C)CCN(C)CC2)c1O` [ZY-15-OMe], the logD in data set [1] came to 1.053 ± 0.002. Also, the viability at 40 h in data set [2] was above 80%. Besides, on Aβ42 oligomers, the Kd amounted to 470 nM; the “binding ratio, Oligomers” value came out at 8.1; the “binding preference oligomers vs fibrils (from Kd values)” value (“binding preference oligomers vs fibrils” for short) is on record as “higher binding affinity to oligomers over fibrils”. Moreover, on Aβ42 fibrils, the equilibrium dissociation constant (Kd) stood at 1240 nM and the “binding ratio, Fibrils” value turned out to be 3.0.
For the molecule `COc1cc(OC)cc(-c2ccc(/C=C/c3cc(CN4CCN(C)CCN(C)CC4)c(O)c(CN4CCN(C)CCN(C)CC4)c3)cc2)c1` [ZY-17-DT], the logD in data set [1] was 0.606 ± 0.032. Also, on Aβ42 oligomers, the Kd worked out at 1030 nM; the “binding ratio, Oligomers” value is on record as 33.3; the “binding preference oligomers vs fibrils” value is “higher binding affinity to oligomers over fibrils”. In addition, on Aβ42 fibrils, the Kd was found to be 2250 nM and the “binding ratio, Fibrils” value came to 1.1.
Molecule `COc1cc(OC)cc(-c2ccc(/C=C/c3cc(CN4CCN(C)CCN(C)CC4)c(O)c(OC)c3)cc2)c1` [ZY-17-OMe] gave a logD in data set [1] of 0.732 ± 0.019. Also, at Aβ42 oligomers, the Kd amounted to 120 nM; the “binding ratio, Oligomers” value is given as 46.7; the “binding preference oligomers vs fibrils” value is given as “higher binding affinity to oligomers over fibrils”. Moreover, at Aβ42 fibrils, the Kd came out at 180 nM and the “binding ratio, Fibrils” value is 21.9.

The logD is lipophilicity at a set pH, counting ionised and neutral species. Lower therefore signals lower lipophilicity. The viability is a per cent measure of how many cells are alive, often set against a control. By Kd is commonly meant the concentration at which binding is half-saturated.
